Measured values as given in article PMC9964319, “Half-Sandwich Rhodium Complexes with Releasable N-Donor Monodentate Ligands: Solution Chemical Properties and the Possibility for Acidosis Activation” (Pharmaceutics, 2023).
Converted amounts (≈) assume the structure as drawn. Where two headings read alike, the source gives them in different places.

Legend:
Assay type in all cases: cell-based
[1] = test system: Colo205 human colon adenocarcinoma cell line (doxorubicin-sensitive); assay: MTT assay, cytotoxicity at pH 6 and 7; conditions: Colo205, 72 h incubation, read-out: IC50
Method: (§1) All cell culture reagents were obtained from Sigma-Aldrich (Merck KGaA, Darmstadt, Germany) and plasticware from Sarstedt (Nümbrecht, Germany). Human colonic adenocarcinoma cell lines Colo205 (catalog number: ATCC-CCL-222) and its doxorubicin-resistant counterpart Colo320 (catalog number: ATCC-CCL-220.1) were purchased from LGC Promochem (Teddington, UK). The cells were cultured in RPMI 1640 medium supplemented with 10% heat-inactivated fetal bovine serum, 2 mM L-glutamine, 1 mM sodium pyruvate, and 100 mM HEPES buffer, adjusting the pH to 6.0 or 7.0. The cells were incubated at 37 °C in a 5% CO2–95% air atmosphere. The semiadherent human colon cancer cells were detached with Trypsin-Versene solution for 5 min at 37 °C.
(§2) The solutions were freshly prepared prior to measurements (see Section 2.1). […] Firstly, these samples were diluted in complete culture medium; then, two-fold serial dilutions of the compounds were prepared in 100 μL of RPMI 1640, horizontally. The semiadherent colonic adenocarcinoma cells were treated with Trypsin-Versene solution. They were adjusted to a density of 1 × 10^4 cells in 100 μL of RPMI 1640 medium and were added to each well, with the exception of the medium control wells. The final volume of the wells containing compounds and cells was 200 μL. Samples were triplicated. The pH of the medium was adjusted to 6.0 or 7.0.
(§3) The culture plates were incubated at 37 °C for 72 h; at the end of the incubation period, 20 μL of MTT solution (from a stock solution of 5 mg/mL) was added to each well. After incubation at 37 °C for 4 h, 100 μL of SDS solution (10% in 0.01 M HCI) was added to each well, and the plates were further incubated at 37 °C overnight. Cell growth was determined by measuring the optical density (OD) at 540/630 nm with a Multiscan EX ELISA reader (Thermo Labsystems, Cheshire, WA, USA). […] Curves were fitted using GraphPad Prism software (2022, version 9.4.1, Graphpad Software (LLC) d.b.a Dotmatics, San Diego, CA, USA) using the sigmoidal dose–response model (comparing variable and fixed slopes).
(§4) The pH-dependent solution speciation of the selected mixed-ligand complexes is an important feature in the hypothesized mechanism of action, and the modeling of acidosis is necessary for the in vitro anticancer assays. In order to find out the cytotoxicity difference based on the pH of the medium, cytotoxic activity was determined at pH 6 and 7 by MTT assay in two human colon adenocarcinoma cell lines (doxorubicin-sensitive Colo205 and doxorubicin-resistant Colo320). […] The mixed-ligand complexes were prepared prior to the measurements, as was already described in Section 2.1. With this method, the effect of the different counter ions could be avoided, and a more adequate comparison of the mixed-ligand complexes could be conducted.

[2] = test system: Colo320 human colon adenocarcinoma cell line (doxorubicin-resistant); assay: MTT assay, cytotoxicity at pH 6 and 7; conditions: Colo320, 72 h incubation, read-out: IC50
Method: as §1, §2, §3, §4

[3] = test system: S. aureus ATCC 25923 (methicillin-susceptible); assay: Antibacterial assay, MIC in 96-well plates at different pH
Description: (§5) The antibacterial effect was studied in two Gram-positive and in two Gram-negative strains. The Gram-positive S. aureus ATCC 25923 (ATCC, Manassas, VA, USA) is a methicillin-susceptible reference bacterial strain, while S. aureus 272123 is a clinical isolate and resistant to methicillin and ofloxacin (MRSA), which was given by Prof. Dr. Leonard Amaral (Institute of Hygiene and Tropical Medicine, Lisbon, Portugal). The Gram-negative strains were E. coli ATCC 25922 (ATCC, Manassas, VA, USA), which is sensitive to antibiotics, and E. coli 32313 (provided by the Institute of Clinical Microbiology, University of Szeged, Hungary), which is resistant to different antibiotics (trimethoprim/sulfamethoxazole, gentamicin, ciprofloxacin, and norfloxacin).
(§6) The minimum inhibitory concentrations (MICs) of the compounds were determined in 96-well plates based on the Clinical and Laboratory Standard Institute guidelines. The compounds were diluted in 100 μL of Mueller Hinton broth. Then, an overnight bacterial culture diluted 10,000 times in 100 μL of medium was added to each well, with the exception of the medium control wells. For each strain and each tested compound, four pH values were set (5, 6, 7, and 8). Each sample was triplicated.

[4] = test system: E. coli ATCC 25922 (sensitive); assay: as above
Description: as §5, §6

[5] = test system: E. coli 32313 (resistant); assay: as above
Description: as §5, §6

S. aureus 272123 (MRSA) = assay: as above
Description: as §5, §6

[6] = E. coli sensitive, pH 6, after one day, read-out: MIC
[7] = E. coli sensitive, pH 7, after one day, read-out: MIC
[8] = E. coli resistant, pH 6, after one day, read-out: MIC
[9] = E. coli resistant, pH 7, after one day, read-out: MIC
[10] = Staphylococcus aureus, ATCC25923, 24 h, S. aureus sensitive, pH 7, after one day, read-out: MIC
[11] = Staphylococcus aureus, ATCC25923, 24 h, S. aureus sensitive, pH 8, after one day, read-out: MIC
[12] = Escherichia coli, ATCC25922, 24 h, E. coli sensitive, pH 5, after one day, read-out: MIC
[13] = Escherichia coli, ATCC25922, 24 h, E. coli sensitive, pH 6, after one day, read-out: MIC
[14] = Escherichia coli, ATCC25922, 24 h, E. coli sensitive, pH 7, after one day, read-out: MIC
[15] = Escherichia coli, ATCC25922, 24 h, E. coli sensitive, pH 8, after one day, read-out: MIC
[16] = Escherichia coli, 24 h, E. coli resistant, pH 5, after one day, read-out: MIC
[17] = Escherichia coli, 24 h, E. coli resistant, pH 6, after one day, read-out: MIC
[18] = Escherichia coli, 24 h, E. coli resistant, pH 7, after one day, read-out: MIC
[19] = Escherichia coli, 24 h, E. coli resistant, pH 8, after one day, read-out: MIC
[20] = Staphylococcus aureus, 24 h, pH 5, after one day, read-out: MIC
[21] = Staphylococcus aureus, 24 h, pH 6, after one day, read-out: MIC
[22] = Staphylococcus aureus, 24 h, pH 7, after one day, read-out: MIC
[23] = Staphylococcus aureus, 24 h, pH 8, after one day, read-out: MIC

SMILES: Cc1c(C)c(C)[c-](C)c1C.Clc1ccc(COC(Cn2ccnc2)c2ccc(Cl)cc2Cl)cc1.[Cl-].[Rh+2][O]c1cccc2cccnc12 (racemic) [[RhCp*(8HQH−1)Cl] +econ]
- IC50 ([1]; pH 6, listed as [RhCp*(8HQH−1)(H2O)]^+ with econazole): ~1.8 µM
- IC50 ([1]; pH 6): 1.8 ± 0.1 µM
- IC50 ([1]; pH 7): 3.3 ± 0.1 µM
- IC50 ([2]; pH 6): 4.52 ± 0.04 µM
- IC50 ([2]; pH 7): 3 ± 0.1 µM
- MIC ([3]; S. aureus sensitive, pH 7, after one day, read-out: MIC): 0.39 µM
- MIC ([3]; S. aureus sensitive, pH 8, after one day, read-out: MIC): 0.39 µM
- MIC ([4]; E. coli sensitive, pH 5, after one day, read-out: MIC): 25 µM
- MIC [4, 6]: 25 µM
- MIC [4, 7]: 25 µM
- MIC ([4]; E. coli sensitive, pH 8, after one day, read-out: MIC): 25 µM
- MIC ([5]; E. coli resistant, pH 5, after one day, read-out: MIC): 50 µM
- MIC [5, 8]: >100 µM
- MIC [5, 9]: >100 µM
- MIC ([5]; E. coli resistant, pH 8, after one day, read-out: MIC): 50 µM
- MIC (S. aureus 272123 (MRSA); pH 5, after one day, read-out: MIC): 12.5 µM
- MIC (S. aureus 272123 (MRSA); pH 6, after one day, read-out: MIC): 6.25 µM
- MIC (S. aureus 272123 (MRSA); pH 7, after one day, read-out: MIC): 3.125 µM
- MIC (S. aureus 272123 (MRSA); pH 8, after one day, read-out: MIC): 3.125 µM

SMILES: Oc1cccc2cccnc12 [Complex 8HQ, 8-hydroxyquinoline, reference compound]
- MIC ([3]; Staphylococcus aureus, ATCC25923, 24 h, pH 7): 25 µM
- MIC ([3]; Staphylococcus aureus, ATCC25923, 24 h, pH 8): 25 µM
- MIC ([4]; Escherichia coli, ATCC25922, 24 h, pH 5): > 100 µM
- MIC ([4]; Escherichia coli, ATCC25922, 24 h, pH 6): > 100 µM
- MIC ([4]; Escherichia coli, ATCC25922, 24 h, pH 7): > 100 µM
- MIC ([4]; Escherichia coli, ATCC25922, 24 h, pH 8): > 100 µM
- MIC ([5]; Escherichia coli, 24 h, pH 5): > 100 µM
- MIC ([5]; Escherichia coli, 24 h, pH 6): > 100 µM
- MIC ([5]; Escherichia coli, 24 h, pH 7): > 100 µM
- MIC ([5]; Escherichia coli, 24 h, pH 8): > 100 µM
- MIC (S. aureus 272123 (MRSA); Staphylococcus aureus, 24 h, pH 5): 100 µM
- MIC (S. aureus 272123 (MRSA); Staphylococcus aureus, 24 h, pH 6): 6.25 µM
- MIC (S. aureus 272123 (MRSA); Staphylococcus aureus, 24 h, pH 7): 6.25 µM
- MIC (S. aureus 272123 (MRSA); Staphylococcus aureus, 24 h, pH 8): 6.25 µM

SMILES: CC1=C(C)C(C)C(C)=C1C.Cn1ccnc1.Oc1cccc2cccnc12.[Rh+3] [[RhCp*(8HQH−1)(mim)]^+]
- IC50 ([1]; pH 6): 7 ± 0.4 µM
- IC50 ([1]; pH 7): 7.2 ± 0.2 µM
- IC50 ([2]; pH 6): 6 ± 0.1 µM
- IC50 ([2]; pH 7): 6.1 ± 0.2 µM

SMILES: CC1=C(C)C(C)C(C)=C1C.[Rh+3].c1ccncc1.c1cnc2c(c1)ccc1cccnc12 [[RhCp*(phen)(Py)]^2+]
- IC50 ([1]; pH 6): > 100 µM
- IC50 ([1]; pH 7): > 100 µM
- IC50 ([2]; pH 6): 83.6 ± 4.1 µM
- IC50 ([2]; pH 7): > 100 µM

SMILES: CC1=C(C)C(C)C(C)=C1C.Cn1ccnc1.[Rh+3].c1cnc2c(c1)ccc1cccnc12 [[RhCp*(phen)(mim)]^2+]
- IC50 ([1]; pH 6): > 100 µM
- IC50 ([1]; pH 7): > 100 µM
- IC50 ([2]; pH 6): 71.7 ± 3.3 µM
- IC50 ([2]; pH 7): > 100 µM

SMILES: COc1cccc2c1C(=O)c1c(O)c3c(c(O)c1C2=O)C[C@@](O)(C(=O)CO)C[C@@H]3O[C@H]1C[C@H](N)[C@H](O)[C@H](C)O1 [doxorubicin, reference compound]
- IC50 ([1]; Homo sapiens, COLO 205, pH 6): 7.6 ± 0.3 µM
- IC50 ([1]; Homo sapiens, COLO 205, pH 7): 0.71 ± 0.02 µM
- IC50 ([2]; Homo sapiens, COLO 320, pH 6): 0.46 ± 0.02 µM

SMILES: Clc1ccc(COC(Cn2ccnc2)c2ccc(Cl)cc2Cl)cc1 (stereo not shown) [econ, econazole, reference compound]
- MIC [3, 10]: 0.78 µM (≈ 0.298 µg/mL)
- MIC [3, 11]: 0.19 µM (≈ 0.0725 µg/mL)
- MIC [4, 6]: >100 µM
- MIC [4, 7]: >100 µM
- MIC [4, 12]: > 100 µM
- MIC [4, 13]: > 100 µM
- MIC [4, 14]: > 100 µM
- MIC [4, 15]: > 100 µM
- MIC [5, 8]: >100 µM
- MIC [5, 9]: >100 µM
- MIC [5, 16]: > 100 µM
- MIC [5, 17]: > 100 µM
- MIC [5, 18]: > 100 µM
- MIC [5, 19]: > 100 µM
- MIC (S. aureus 272123 (MRSA); [20]): 25 µM (≈ 9.54 µg/mL)
- MIC (S. aureus 272123 (MRSA); [21]): 12.5 µM (≈ 4.77 µg/mL)
- MIC (S. aureus 272123 (MRSA); [22]): 6.25 µM (≈ 2.39 µg/mL)
- MIC (S. aureus 272123 (MRSA); [23]): 3.12 µM (≈ 1.19 µg/mL)

SMILES: c1cnc2c(c1)ccc1cccnc12 [phen, 1,10-phenanthroline, reference compound]
- MIC [3, 10]: > 100 µM
- MIC [3, 11]: > 100 µM
- MIC [4, 12]: 50 µM (≈ 9.01 µg/mL)
- MIC [4, 13]: 50 µM (≈ 9.01 µg/mL)
- MIC [4, 14]: 50 µM (≈ 9.01 µg/mL)
- MIC [4, 15]: 25 µM (≈ 4.51 µg/mL)
- MIC [5, 16]: 50 µM (≈ 9.01 µg/mL)
- MIC [5, 17]: 50 µM (≈ 9.01 µg/mL)
- MIC [5, 18]: 50 µM (≈ 9.01 µg/mL)
- MIC [5, 19]: 50 µM (≈ 9.01 µg/mL)
- MIC (S. aureus 272123 (MRSA); [20]): 50 µM (≈ 9.01 µg/mL)
- MIC (S. aureus 272123 (MRSA); [21]): > 100 µM
- MIC (S. aureus 272123 (MRSA); [22]): > 100 µM
- MIC (S. aureus 272123 (MRSA); [23]): > 100 µM

SMILES: O=P(O)(O)C(O)(Cn1ccnc1)P(=O)(O)O [zol, zoledronic acid, reference compound]
- MIC [3, 10]: > 100 µM
- MIC [3, 11]: > 100 µM
- MIC [4, 12]: > 100 µM
- MIC [4, 13]: > 100 µM
- MIC [4, 14]: > 100 µM
- MIC [4, 15]: > 100 µM
- MIC [5, 16]: > 100 µM
- MIC [5, 17]: > 100 µM
- MIC [5, 18]: > 100 µM
- MIC [5, 19]: > 100 µM
- MIC (S. aureus 272123 (MRSA); [20]): > 100 µM
- MIC (S. aureus 272123 (MRSA); [21]): > 100 µM
- MIC (S. aureus 272123 (MRSA); [22]): > 100 µM
- MIC (S. aureus 272123 (MRSA); [23]): > 100 µM
